Laboratory results as given in patent US9006451B1, “2-anilinonicotinyl based chalcones useful as potential anticancer agents and process for preparation thereof” (Council of Scientific and Industrial Research, priority 2013, dated 2015).
Where two headings read alike, the source gives them in different places.

Assays:
Type in all cases: cell-based
SK-MEL-5 = assay: NCI 60 human tumor cell line screen (SRB): SK-MEL-5; settings: SK-MEL-5, Melanoma, 48 hours, read-out: GI50 values (μM conc.)
Method: (§1) The in vitro anticancer activity studies for these chalcone analogues were carried out at the National Cancer Institute, USA.
(§2) The chalcone compounds have been tested at NCI, USA, against sixty human tumor cell lines derived from nine cancer types (leukemia, non-small cell lung cancer, colon cancer, CNS cancer, melanoma cancer, ovarian cancer, renal cancer, prostate cancer and breast cancer). For these compounds results are expressed as growth inhibition (GI50) values as per NCI protocol.
(§3) We describe here the development and implementation of a pilot-scale, in vitro, anticancer drug screen utilizing a panel of 60 human tumor cell lines organized into subpanels representing leukemia, melanoma, and cancers of the lung, colon, kidney, ovary, and central nervous system. The ultimate goal of this disease-oriented screen is to facilitate the discovery of new compounds with potential cell line-specific and/or subpanel-specific antitumor activity. In the current screening protocol, each cell line is inoculated onto microtiter plates, then preincubated for 28 hours. Subsequently, test agents are added in five 10-fold dilutions and the culture is incubated for an additional 48 hours. For each test agent, a dose-response profile is generated. End-point determinations of the cell viability or cell growth are performed by in situ fixation of cells, followed by staining with a protein-binding dye, sulforhodamine B (SRB). The SRB binds to the basic amino acids of cellular macromolecules; the solubilized stain is measured spectrophotometrically to determine relative cell growth or viability in treated and untreated cells.

MALME-3M = assay: NCI 60 human tumor cell line screen (SRB): MALME-3M; settings: Melanoma, 48 hours, read-out: GI50 values (μM conc.)
Method: as §1, §2, §3

HS 578T = assay: NCI 60 human tumor cell line screen (SRB): HS 578T; settings: Breast, 48 hours, read-out: GI50 values (μM conc.)
Method: as §1, §2, §3

HL-60(TB) = assay: NCI 60 human tumor cell line screen (SRB): HL-60(TB); settings: Leukemia, 48 hours, read-out: GI50 values (μM conc.)
Method: as §1, §2, §3

ACHN = assay: NCI 60 human tumor cell line screen (SRB): ACHN; settings: Renal, 48 hours, read-out: GI50 values (μM conc.)
Method: as §1, §2, §3

786-0 = assay: NCI 60 human tumor cell line screen (SRB): 786-0; settings: 786-0, Renal, 48 hours, read-out: GI50 values (μM conc.)
Method: as §1, §2, §3

OVCAR-3 = assay: NCI 60 human tumor cell line screen (SRB): OVCAR-3; settings: OVCAR-3, Ovarian, 48 hours, read-out: GI50 values (μM conc.)
Method: as §1, §2, §3

SW-620 = assay: NCI 60 human tumor cell line screen (SRB): SW-620; settings: SW-620, Colon, 48 hours, read-out: GI50 values (μM conc.)
Method: as §1, §2, §3

RPMI-8226 = assay: NCI 60 human tumor cell line screen (SRB): RPMI-8226; settings: RPMI-8226, Leukemia, 48 hours, read-out: GI50 values (μM conc.)
Method: as §1, §2, §3

U251 = assay: NCI 60 human tumor cell line screen (SRB): U251; settings: U-251, U251, CNS, 48 hours, read-out: GI50 values (μM conc.)
Method: as §1, §2, §3

NCI-H23 = assay: NCI 60 human tumor cell line screen (SRB): NCI-H23; settings: NCI-H23, Non-small cell lung, 48 hours, read-out: GI50 values (μM conc.)
Method: as §1, §2, §3

TK-10 = assay: NCI 60 human tumor cell line screen (SRB): TK-10; settings: TK-10, Renal, 48 hours, read-out: GI50 values (μM conc.)
Method: as §1, §2, §3

CCRF-CEM = assay: NCI 60 human tumor cell line screen (SRB): CCRF-CEM; settings: Leukemia, 48 hours, read-out: GI50 values (μM conc.)
Method: as §1, §2, §3

NCI-H322M = assay: NCI 60 human tumor cell line screen (SRB): NCI-H322M; settings: Non-small cell lung, 48 hours, read-out: GI50 values (μM conc.)
Method: as §1, §2, §3

NCI-H460 = assay: NCI 60 human tumor cell line screen (SRB): NCI-H460; settings: NCI-H460, Non-small cell lung, 48 hours, read-out: GI50 values (μM conc.)
Method: as §1, §2, §3

COLO-205 = assay: NCI 60 human tumor cell line screen (SRB): COLO-205; settings: COLO-205, Colon, 48 hours, read-out: GI50 values (μM conc.)
Method: as §1, §2, §3

MDA-MB-435 = assay: NCI 60 human tumor cell line screen (SRB): MDA-MB-435; settings: MDA-MB-435, Melanoma, 48 hours, read-out: GI50 values (μM conc.)
Method: as §1, §2, §3

OVCAR-5 = assay: NCI 60 human tumor cell line screen (SRB): OVCAR-5; settings: OVCAR-5, Ovarian, 48 hours, read-out: GI50 values (μM conc.)
Method: as §1, §2, §3

MCF7 = assay: NCI 60 human tumor cell line screen (SRB): MCF7
Method: as §1, §2, §3

SF-268 = assay: NCI 60 human tumor cell line screen (SRB): SF-268; settings: SF-268, CNS, 48 hours, read-out: GI50 values (μM conc.)
Method: as §1, §2, §3

HCT-116 = assay: NCI 60 human tumor cell line screen (SRB): HCT-116; settings: HCT-116, Colon, 48 hours, read-out: GI50 values (μM conc.)
Method: as §1, §2, §3

SF-295 = assay: NCI 60 human tumor cell line screen (SRB): SF-295; settings: SF-295, CNS, 48 hours, read-out: GI50 values (μM conc.)
Method: as §1, §2, §3

SNB-75 = assay: NCI 60 human tumor cell line screen (SRB): SNB-75; settings: SNB-75, CNS, 48 hours, read-out: GI50 values (μM conc.)
Method: as §1, §2, §3

HCC-2998 = assay: NCI 60 human tumor cell line screen (SRB): HCC-2998; settings: HCC-2998, Colon, 48 hours, read-out: GI50 values (μM conc.)
Method: as §1, §2, §3

A549/ATCC = assay: NCI 60 human tumor cell line screen (SRB): A549/ATCC; settings: Non-small cell lung, 48 hours, read-out: GI50 values (μM conc.)
Method: as §1, §2, §3

SN12C = assay: NCI 60 human tumor cell line screen (SRB): SN12C; settings: Renal, 48 hours, read-out: GI50 values (μM conc.)
Method: as §1, §2, §3

OVCAR-8 = assay: NCI 60 human tumor cell line screen (SRB): OVCAR-8; settings: OVCAR-8, Ovarian, 48 hours, read-out: GI50 values (μM conc.)
Method: as §1, §2, §3

NCI/ADR-RES = assay: NCI 60 human tumor cell line screen (SRB): NCI/ADR-RES; settings: Ovarian, 48 hours, read-out: GI50 values (μM conc.)
Method: as §1, §2, §3

UACC-62 = assay: NCI 60 human tumor cell line screen (SRB): UACC-62; settings: UACC-62, Melanoma, 48 hours, read-out: GI50 values (μM conc.)
Method: as §1, §2, §3

SF-539 = assay: NCI 60 human tumor cell line screen (SRB): SF-539; settings: SF-539, CNS, 48 hours, read-out: GI50 values (μM conc.)
Method: as §1, §2, §3

[1] = MCF7, Breast, 48 hours, SRB, read-out: GI50 values (μM conc.)
[2] = MCF7, comparison table, read-out: GI50 μM in MCF7

Structure (SMILES): COc1cc(Nc2ncccc2/C=C/C(=O)c2cc(OC)c(OC)c(OC)c2)cc(OC)c1OC [6v, (E)-1-(3,4,5-Trimethoxyphenyl)-3-(2-(3,4,5-trimethoxyphenylamino)pyridin-3-yl)prop-2-en-1-one]
- GI50 (SK-MEL-5): 4.17 µM
- GI50 (MALME-3M): 15.3 µM
- GI50 (HS 578T): 13.2 µM
- GI50 (HL-60(TB)): 8 µM
- GI50 (ACHN): 5.34 µM
- GI50 (786-0): 5.98 µM
- GI50 (OVCAR-3): 7.45 µM
- GI50 (SW-620): 4.81 µM
- GI50 (RPMI-8226): 6.83 µM
- GI50 (U251): 4.1 µM
- GI50 (NCI-H23): 10.2 µM
- GI50 (TK-10): 1.55 µM
- GI50 (CCRF-CEM): 7.08 µM
- GI50 (NCI-H322M): 21.1 µM
- GI50 (NCI-H460): 3.61 µM
- GI50 (COLO-205): 4.44 µM
- GI50 (MDA-MB-435): 5.63 µM
- GI50 (OVCAR-5): 16.3 µM
- GI50 (MCF7; [1]): 3.97 µM
- GI50 (MCF7; [2]): 3.97 µM
- GI50 (SF-268): 8.19 µM
- GI50 (HCT-116): 3.77 µM
- GI50 (SF-295): 4.92 µM
- GI50 (SNB-75): 4.12 µM
- GI50 (HCC-2998): 7.74 µM
- GI50 (A549/ATCC): 4.21 µM
- GI50 (SN12C): 5.1 µM
- GI50 (OVCAR-8): 6.7 µM
- GI50 (NCI/ADR-RES): 4.44 µM
- GI50 (UACC-62): 4.96 µM
- GI50 (SF-539): 12.2 µM

Structure (SMILES): COc1ccc(C(=O)/C=C/c2cccnc2Nc2cc(OC)c(OC)c(OC)c2)cc1 [6z, (E)-1-(4-Methoxyphenyl)-3-(2-(3,4,5-trimethoxyphenylamino)pyridin-3-yl)prop-2-en-1-one]
- GI50 (SK-MEL-5): 2.41 µM
- GI50 (MALME-3M): 3.24 µM
- GI50 (HS 578T): 6.38 µM
- GI50 (HL-60(TB)): 1.27 µM
- GI50 (ACHN): 1.7 µM
- GI50 (786-0): 1.31 µM
- GI50 (OVCAR-3): 0.48 µM
- GI50 (SW-620): 0.39 µM
- GI50 (RPMI-8226): 0.85 µM
- GI50 (U251): 1.27 µM
- GI50 (NCI-H23): 4.02 µM
- GI50 (TK-10): 2.06 µM
- GI50 (CCRF-CEM): 0.71 µM
- GI50 (NCI-H322M): 7.38 µM
- GI50 (NCI-H460): 2.16 µM
- GI50 (COLO-205): 1.54 µM
- GI50 (MDA-MB-435): 0.74 µM
- GI50 (OVCAR-5): 1.95 µM
- GI50 (MCF7; [1]): 0.18 µM
- GI50 (MCF7; [2]): 0.18 µM
- GI50 (SF-268): 3.13 µM
- GI50 (HCT-116): 0.53 µM
- GI50 (SF-295): 2.91 µM
- GI50 (SNB-75): 2.44 µM
- GI50 (HCC-2998): 1.42 µM
- GI50 (A549/ATCC): 2.15 µM
- GI50 (SN12C): 1.91 µM
- GI50 (OVCAR-8): 2.2 µM
- GI50 (NCI/ADR-RES): 1.38 µM
- GI50 (UACC-62): 1.9 µM
- GI50 (SF-539): 1.81 µM

Structure (SMILES): COc1cc(/C=C/C(=O)c2cccnc2Nc2ccc(F)cc2)cc(OC)c1OC [7f, (E)-1-(2-(4-Fluorophenylamino)pyridin-3-yl)-3-(3,4,5-trimethoxyphenyl)prop-2-en-1-one]
- GI50 (SK-MEL-5): 2.51 µM
- GI50 (MALME-3M): 6.9 µM
- GI50 (HS 578T): 3.68 µM
- GI50 (HL-60(TB)): 2.4 µM
- GI50 (ACHN): 2.84 µM
- GI50 (786-0): 3.9 µM
- GI50 (OVCAR-3): 2.63 µM
- GI50 (SW-620): 3.3 µM
- GI50 (RPMI-8226): 2.43 µM
- GI50 (U251): 2.78 µM
- GI50 (NCI-H23): 2.34 µM
- GI50 (TK-10): 3.52 µM
- GI50 (CCRF-CEM): 2.45 µM
- GI50 (NCI-H322M): 4.83 µM
- GI50 (NCI-H460): 2.83 µM
- GI50 (COLO-205): 2.64 µM
- GI50 (MDA-MB-435): 3.05 µM
- GI50 (OVCAR-5): 4.1 µM
- GI50 (MCF7; [1]): 2.44 µM
- GI50 (MCF7; [2]): 2.44 µM
- GI50 (SF-268): 4.18 µM
- GI50 (HCT-116): 1.54 µM
- GI50 (SF-295): 4.16 µM
- GI50 (SNB-75): 1.93 µM
- GI50 (HCC-2998): 1.78 µM
- GI50 (A549/ATCC): 2.66 µM
- GI50 (SN12C): 3.23 µM
- GI50 (OVCAR-8): 2.69 µM
- GI50 (NCI/ADR-RES): 2.37 µM
- GI50 (UACC-62): 2.35 µM
- GI50 (SF-539): 2.85 µM
